# Measured values published in patent publication US10221163B2 (priority 2015, dated 2019).
# pIC50: −log10 of the molar value. Like-named read-outs stand apart in the source and are kept apart here.
# Key:
# [1] = system: Serratia marcescens expressing IMP-1 (CL5741); type: cell-based; conditions: for Serratia marcescens expressing IMP-1 (CL5741) MITC95: with imipenem 1 μg/ml, 95% inhibition of bacterial growth; for Serratia marcescens MITC95: IMP-1 strain CL5741, with imipenem 1 μg/ml, 95% inhibition of growth
# Summary of the method: (§1)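 Clinical strains grown overnight on blood agar at 35°C, colonies suspended in saline, diluted 1:100 into 1.1×CAMHB. Test compound titrated with imipenem at 1 μg/ml; incubated 22–24 h at 35°C, growth read by absorbance.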
# [2] = system: Klebsiella pneumoniae expressing VIM-1 (IHMA599644); type: cell-based; conditions: for Klebsiella pneumoniae expressing VIM-1 (IHMA599644) MITC95: with imipenem 1 μg/ml, 95% inhibition of bacterial growth; for Klebsiella pneumoniae MITC95: VIM-1 strain IHMA599644, with imipenem 1 μg/ml, 95% inhibition of growth
# Summary of the method: as §1
# [3] = system: Escherichia coli expressing NDM-1 (CLB30005, CLB30016); type: cell-based; conditions: with imipenem 1 μg/ml; for Escherichia coli expressing NDM-1 (CLB30016) MITC95: 95% inhibition of bacterial growth; for Escherichia coli MITC95: NDM-1 strain, 95% inhibition of growth
# Summary of the method: as §1
# [4] = system: Pseudomonas aeruginosa MB9798 vs MB9799
# Text: The strain background was Pseudomonas aeruginosa PAO1.
# The strain set was then used as a pair to determine the effect of metallo-β-lactamase inhibitors of Formula I on the MIC of imipenem and/or ceftazidime. A fixed concentration of antibiotic was included in standard microbroth MIC tests, usually at the CLSI (Clinical and Laboratory Standards Institute) breakpoint concentration. A fixed amount of a class A/C beta-lactamase inhibitor was also included to inhibit the resident Pseudomonas AmpC enzyme. A serial titration of the metallo-β-lactamase inhibitor was included and the concentration of metallo-β-lactamase inhibitor which restores susceptibility of the strain to the included antibiotic was recorded. That concentration of metallo-β-lactamase inhibitor was then compared between the two strains to determine the fold difference between the efflux+ (MB9798) and efflux− (MB9799) strains. This was taken as an indication of the extent to which the MBLi is subject to efflux.
# [5] = system: Pseudomonas aeruginosa efflux− (MB9799), IMP-1; type: cell-based; conditions: C, D serine β-lactamase inhibitor closely related to relebactam; for P. aeruginosa expressing IMP-1, efflux − (MB9799) MITC95: concentration restoring susceptibility to imipenem at 2 μg/mL in the presence of a class A
# Summary of the method: (§2)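 PAO1 pair, broth microdilution; fixed β-lactam (imipenem/ceftazidime) at ~CLSI breakpoint + fixed class A/C BLI for AmpC; serial MBLi titration; endpoint = MBLi conc. restoring susceptibility; MB9798:MB9799 ratio = efflux liability.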
# [6] = system: Pseudomonas aeruginosa efflux+ (MB9798), IMP-1; type: cell-based; design: Concentration of metallo-β-lactamase inhibitor which restores susceptibility of efflux + (MB9798) strain to imipenem: unit not given here; conditions: C, D serine β-lactamase inhibitor closely related to relebactam; for P. aeruginosa expressing IMP-1, efflux + (MB9798) MITC95: concentration restoring susceptibility to imipenem at 2 μg/mL in the presence of a class A
# Summary of the method: as §2
# [7] = biological target: VIM-1 (Pseudomonas aeruginosa (strain ATCC 15692 / DSM 22644 / CIP 104116 / JCM 14847 / LMG 12228 / 1C / PRS 101 / PAO1), UniProt A0A0F7KYQ8); experiment: biochemical; conditions: CCF2-FA substrate, 30 pM enzyme, 2 hours at 25° C.
# Summary of the method: (§3)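 Class B activity is measured in the presence of compound by fluorescence with CCF2-FA after a 2-hour incubation at 25° C. IC50 is taken from a 4-parameter fit of semi-logarithmic dose-response data.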
# [8] = biological target: NDM-1 (Klebsiella pneumoniae, UniProt C7C422); experiment: biochemical; type: biochemical; conditions: fluorescence assay, CCF2-FA substrate, 1 pM enzyme, 2 hours at 25° C.; read-out: NDM-1 IC50
# Summary of the method: as §3
# [9] = biological target: IMP-1 (Serratia marcescens, UniProt P52699); experiment: biochemical; type: biochemical; conditions: fluorescence assay, CCF2-FA substrate, 2 pM enzyme, 2 hours at 25° C.; read-out: IMP-1 IC50
# Summary of the method: as §3
# [10] = ratio MITC95 PA_9798/MITC95 PA_9799
# [11] = fluorescence assay, read-out: VIM-1 IC50
# Sequence of NDM-1 (C7C422 whole entry, looked up, species assumed): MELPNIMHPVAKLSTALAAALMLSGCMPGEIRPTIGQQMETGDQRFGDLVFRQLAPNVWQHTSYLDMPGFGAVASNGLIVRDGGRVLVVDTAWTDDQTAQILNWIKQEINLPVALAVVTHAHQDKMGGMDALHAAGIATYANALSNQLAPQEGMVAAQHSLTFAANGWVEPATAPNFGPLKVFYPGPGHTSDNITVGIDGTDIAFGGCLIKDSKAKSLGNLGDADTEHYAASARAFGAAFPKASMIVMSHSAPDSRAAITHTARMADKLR
# Sequence of IMP-1 (P52699 whole entry, looked up, species assumed): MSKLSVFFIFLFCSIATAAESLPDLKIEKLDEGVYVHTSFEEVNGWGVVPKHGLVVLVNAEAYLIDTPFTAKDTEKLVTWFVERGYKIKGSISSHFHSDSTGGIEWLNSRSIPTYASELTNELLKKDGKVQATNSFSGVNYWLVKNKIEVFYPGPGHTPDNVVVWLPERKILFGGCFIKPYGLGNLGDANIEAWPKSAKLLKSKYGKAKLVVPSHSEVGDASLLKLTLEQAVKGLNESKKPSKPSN
Structure (SMILES),Serratia marcescens expressing IMP-1 (CL5741) MITC95 [1] [µM],Klebsiella pneumoniae expressing VIM-1 (IHMA599644) MITC95 [2] [µM],Escherichia coli expressing NDM-1 (CLB30016) MITC95 [3] [µM],"Efflux ratio [4, 10]","P. aeruginosa expressing IMP-1, efflux − (MB9799) MITC95 [5] [µM]","P. aeruginosa expressing IMP-1, efflux + (MB9798) MITC95 [6] [µM]","pIC50 [7, 11]",pIC50 [8],pIC50 [9],Serratia marcescens MITC95 [1] [µM],Klebsiella pneumoniae MITC95 [2] [µM],Escherichia coli MITC95 [3] [µM],"pIC50 ([7]; VIM-1 IC50, fluorescence assay)","Efflux ratio ([4]; fold difference between efflux+ (MB9798) and efflux− (MB9799) strains, imipenem at 2 μg/mL)","Concentration of metallo-β-lactamase inhibitor which restores susceptibility of efflux − (MB9799) strain to imipenem ([5]; efflux− MB9799, imipenem at 2 μg/mL, in the presence of a class A)","Concentration of metallo-β-lactamase inhibitor which restores susceptibility of efflux + (MB9798) strain to imipenem ([6]; efflux+ MB9798, imipenem at 2 μg/mL, in the presence of a class A)"
"Nc1nc2c(-c3ccc(S(=O)(=O)NC4CNC4)c(S(N)(=O)=O)c3-c3nn[nH]n3)cccc2s1 [Example 146, 4-(2-aminobenzo[d]thiazol-4-yl)-N1-(azetidin-3-yl)-3-(2H-tetrazol-5-yl)benzene-1,2-disulfonamide]",0.7813,1.563,3.125,0.50,0.7813,0.3906,9.65,10.43,9.45,–,–,–,–,–,–,–
"Cn1c(N)nc2c(-c3ccc(S(N)(=O)=O)c(S(N)(=O)=O)c3-c3nn[nH]n3)cccc21 [Example 5, 4-(2-amino-1-methyl-1H-benzo[d]imidazol-4-yl)-3-(2H-tetrazol-5-yl)benzene-1,2-disulfonamide]",0.8906,1.781,0.25,2.00,0.8906,1.781,9.84,9.71,9.46,–,–,–,–,–,–,–
"NCc1nc2c(-c3ccc(S(=O)(=O)NC[C@@H](O)CN)c(S(N)(=O)=O)c3-c3nn[nH]n3)cccc2s1 [Example 306, (S)—N1-(3-amino-2-hydroxypropyl)-4-(2-(aminomethyl)benzo[d]thiazol-4-yl)-(2H-tetrazol-5-yl)benzene-1,2-disulfonamide]",–,–,–,1.00,0.7813,0.7813,–,10.23,9.53,0.7813,1.563,0.7813,10.25,–,–,–
"Nc1nc2c(-c3ccc(S(=O)(=O)NC[C@H]4CCNC4)c(S(N)(=O)=O)c3-c3nn[nH]n3)cccc2[nH]1 [Example 259, (S)-4-(2-amino-1H-benzo[d]imidazol-4-yl)-N1-(pyrrolidin-3-ylmethyl)-3-(2H-tetrazol-5-yl)benzene-1,2-disulfonamide]",–,–,–,1.00,0.7813,0.7813,–,10.26,9.08,0.7813,1.563,0.3906,9.64,–,–,–
"NCCNS(=O)(=O)c1ccc(-c2cccc(NC[C@H](N)CO)c2)c(-c2nn[nH]n2)c1S(N)(=O)=O [Example 350, (S)-3′-((2-amino-3-hydroxypropyl)amino)-N4-(2-aminoethyl)-2-(2H-tetrazol-5-yl)-[1,1′-biphenyl]-3,4-disulfonamide]",–,–,–,1.00,0.7813,0.7813,9.38,8.76,8.36,0.7813,0.7813,0.7813,–,–,–,–
"NCCNS(=O)(=O)c1ccc(-c2cccc(NC[C@@H](O)CN)c2)c(-c2nn[nH]n2)c1S(N)(=O)=O [Example 352, (S)-3′-((3-amino-2-hydroxypropyl)amino)N4-(2-aminoethyl)-2-(2H-tetrazol-5-yl)-[1,1′-biphenyl]-3,4-disulfonamide]",–,–,–,2.00,0.7813,1.563,–,8.85,8.36,1.563,1.563,0.7813,9.42,–,–,–
"NCCNC(=O)c1cc(-c2ccc(S(=O)(=O)NCCN)c(S(N)(=O)=O)c2-c2nn[nH]n2)ccc1N [Example 451, 4-Amino-N-(2-aminoethyl)-4′-(N-(2-aminoethyl)sulfamoyl)-3′-sulfamoyl-2′-(2H-tetrazol-5-yl)-[1,1′-biphenyl]-3-carboxamide]",–,–,–,–,–,–,9.25,8.77,8.40,0.7813,0.7813,0.7813,–,2.00,0.7813,1.563
"NCc1ncc(-c2cccc(-c3ccc(S(=O)(=O)N[C@@H]4CCNC4)c(S(N)(=O)=O)c3-c3nn[nH]n3)c2)[nH]1 [Example 278, (R)-3′-(2-(aminomethyl)-1H-imidazol-5-yl)-N4-(pyrrolidin-3-yl)-2-(2H-tetrazol-5-yl)-[1,1′-biphenyl]-3,4-disulfonamide]",–,–,–,1.00,0.7813,0.7813,–,10.25,9.19,0.7813,0.7813,0.7813,9.84,–,–,–
"CNC(=O)CNS(=O)(=O)c1ccc(-c2cccc3sc(N)nc23)c(-c2nnn[nH]2)c1S(N)(=O)=O [Example 23, N^2-{[4-(2-amino-1,3-benzothiazol-4-yl)-2-sulfamoyl-3-(1H-tetrazol-5-yl)phenyl]sulfonyl}-N-methylglycinamide]",6.25,12.5,25,1.00,3.125,3.125,–,10.29,9.53,–,–,–,9.65,–,–,–
